Measured values from the supplement of paper PMC10307832.

Legend:
[1] = compound: CC1=CC(=CC=C1)NC2=NC(=CS2)C3=CC=NC=C3; test: relative viability (nuclei count vs DMSO), 5 days (fraction); higher = more cells survive
Procedure, shortened: (§1)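 Lung cancer cell lines were seeded into 1536-well plates, kept overnight at 37 °C and pinned with five library-drug doses (not always all listed) spaced by √10. After 5 days, nuclei were Hoechst-stained, imaged at 4× and counted with MetaXpress. Viability is treated-well nuclei over vehicle-well nuclei, taken as a median across plates. Plates needed control CV below 25% and at least one doubling.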

[2] = compound: Cc1ccc(NC(=O)c2ccc(CN3CCN(C)CC3)cc2)cc1Nc1nc(-c2cccnc2)cs1 [Masitinib]; test: as above
Procedure, shortened: as §1

Cell Line	relative viability ([1]; 0.08 µM)	relative viability ([1]; 0.253 µM)	relative viability ([1]; 0.8 µM)	relative viability ([1]; 2.53 µM)	relative viability ([1]; 8 µM)	relative viability ([2]; 0.01 µM)	relative viability ([2]; 0.03162 µM)	relative viability ([2]; 0.1 µM)	relative viability ([2]; 0.3162 µM)	relative viability ([2]; 1 µM)
LXF-289	0.942	0.987	0.974	0.974	0.915	0.806	0.973	0.941	1	1.01
NCI-H23	0.879	0.808	1.01	0.835	0.972	0.888	0.926	1.03	0.933	0.916
NCI-H322M	0.819	0.845	0.948	1.02	0.961	0.934	0.948	0.933	0.897	0.848
NCI-H358	0.997	0.899	0.868	1.01	0.966	0.963	0.967	0.961	0.892	0.893
NCI-H441	0.957	1	1.01	0.922	0.866	1.01	0.956	1.09	1.25	1.07
NCI-H460	0.965	0.908	0.936	0.884	0.857	0.864	1.01	0.949	0.876	0.983
NCI-H520	0.922	1.06	1.03	1.08	0.943	1.01	1.11	1.24	0.999	1.01
NCI-H522	0.894	0.886	0.931	0.925	1.15	1.06	0.815	0.866	1.07	0.974
NCI-H596	0.917	0.883	0.86	0.948	0.803	0.934	1.13	0.949	0.901	0.837
NCI-H647	0.816	0.87	0.797	0.869	0.76	0.926	0.959	1.07	0.983	0.873
NCI-H650	0.805	0.881	1.01	0.752	1.15	0.998	0.963	1.09	1.04	0.899
NCI-H661	0.907	0.944	0.913	0.914	0.99	0.9	0.977	0.986	0.967	0.947
NCI-H727	0.698	0.737	0.808	0.791	0.924	0.947	0.948	1.08	0.945	0.92
NCI-H838	0.823	0.891	0.894	0.835	0.846	0.867	0.855	0.955	0.907	0.929
NCI-H1299	0.981	0.997	0.968	1.02	0.937	1.06	1.01	1.05	1.04	0.984
NCI-H1355	0.769	0.73	0.768	0.694	0.65	0.813	0.723	0.851	0.762	0.966
NCI-H1395	0.765	0.734	0.898	0.729	0.766	0.882	0.965	1.04	0.967	0.85
NCI-H1437	0.976	0.882	0.938	0.874	0.856	0.838	0.93	1.06	0.986	0.85
NCI-H1563	0.917	1.04	0.954	0.983	0.838	0.9	0.975	0.983	0.931	0.937
NCI-H1623	0.948	0.886	0.894	0.81	0.84	0.982	0.883	0.894	0.889	0.905
NCI-H1648	0.659	0.814	0.797	0.87	0.758	0.907	0.599	1.01	0.776	0.896
NCI-H1650	0.715	0.841	0.962	0.687	0.434	0.798	0.979	0.871	0.885	0.89
NCI-H1651	0.95	0.918	1.03	0.87	0.963	0.899	0.97	0.954	0.988	0.971
NCI-H1666	0.866	0.83	0.818	0.705	0.688	0.779	0.944	0.939	0.846	0.961
NCI-H1703	0.831	0.977	0.907	0.986	0.946	0.866	0.821	0.526	0.32	0.261
